From ChEMBL document CHEMBL2163335, “Structure-functional selectivity relationship studies of β-arrestin-biased dopamine D₂ receptor agonists” (J Med Chem, 2012)
One block for each molecule: values may come before it. Active and inactive are the calls of the source. The calls are words filed in the database; no cut-off is given here.

How the values were obtained:
[1] = target: T1, D(2) dopamine receptor (Homo sapiens, UniProt P14416); assay: Agonist activity at D2L receptor in human HTLA cells assessed as beta arrestin recruitment at 6 uM after 18 hrs by luminescence assay; type: functional, cell-based
T1 sequence (P14416 whole entry): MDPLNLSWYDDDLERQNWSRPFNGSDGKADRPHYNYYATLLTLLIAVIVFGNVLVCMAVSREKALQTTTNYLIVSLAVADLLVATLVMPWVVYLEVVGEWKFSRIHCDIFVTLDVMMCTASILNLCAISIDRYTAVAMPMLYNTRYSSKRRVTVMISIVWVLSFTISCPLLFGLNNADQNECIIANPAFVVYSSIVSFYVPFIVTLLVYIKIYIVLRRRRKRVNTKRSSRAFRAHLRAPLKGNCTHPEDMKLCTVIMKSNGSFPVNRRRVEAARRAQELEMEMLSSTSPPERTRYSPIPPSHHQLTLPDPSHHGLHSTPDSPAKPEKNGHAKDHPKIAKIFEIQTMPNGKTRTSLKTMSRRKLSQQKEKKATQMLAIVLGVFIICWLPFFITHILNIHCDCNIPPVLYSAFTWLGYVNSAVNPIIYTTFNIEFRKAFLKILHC

[2] = target: T1, D(2) dopamine receptor; assay: Agonist activity at human D2L receptor expressed in HEK293T cells coexpressing Gi subunit assessed as inhibition of isoproterenol-stimulated cAMP production by luminescence assay; type: functional, cell-based, HEK-293T
[3] = target: T1, D(2) dopamine receptor; assay: Displacement of [3H]N-methylspiperone from human D2L receptor expressed in CHO cells after 1.5 hrs by microbeta counting method; type: cell-based
[4] = target: T1, D(2) dopamine receptor; conditions: HTLA, at 6 µM
Description: Agonist activity at D2L receptor in human HTLA cells assessed as beta arrestin recruitment at 6 uM after 18 hrs by luminescence assay relative to Quinpirole

[5] = target: T1, D(2) dopamine receptor; assay: Partial agonist activity at D2L receptor in human HTLA cells assessed as beta arrestin recruitment at 6 uM after 18 hrs by luminescence assay; type: functional, cell-based
[6] = system: Mus musculus; assay: Antipsychotic-like activity in beta- arrestin-2 knockout mouse assessed as inhibition of PCP-induced hyperlocomotion at 2 mg/kg, ip administered 30 min prior to PCP challenge measured after 90 min; type: functional, organism-based; parameters: dose 2 mg/kg
[7] = system: Mus musculus; assay: Antipsychotic-like activity in wild type mouse assessed as inhibition of PCP-induced hyperlocomotion at 2 mg/kg, ip administered 30 min prior to PCP challenge measured after 90 min; type: functional, organism-based; parameters: dose 2 mg/kg
[8] = target: D(1B) dopamine receptor (Homo sapiens) (UniProt P21918); assay: Binding affinity to D5 receptor
Sequence of D(1B) dopamine receptor (Homo sapiens) (P21918 whole entry): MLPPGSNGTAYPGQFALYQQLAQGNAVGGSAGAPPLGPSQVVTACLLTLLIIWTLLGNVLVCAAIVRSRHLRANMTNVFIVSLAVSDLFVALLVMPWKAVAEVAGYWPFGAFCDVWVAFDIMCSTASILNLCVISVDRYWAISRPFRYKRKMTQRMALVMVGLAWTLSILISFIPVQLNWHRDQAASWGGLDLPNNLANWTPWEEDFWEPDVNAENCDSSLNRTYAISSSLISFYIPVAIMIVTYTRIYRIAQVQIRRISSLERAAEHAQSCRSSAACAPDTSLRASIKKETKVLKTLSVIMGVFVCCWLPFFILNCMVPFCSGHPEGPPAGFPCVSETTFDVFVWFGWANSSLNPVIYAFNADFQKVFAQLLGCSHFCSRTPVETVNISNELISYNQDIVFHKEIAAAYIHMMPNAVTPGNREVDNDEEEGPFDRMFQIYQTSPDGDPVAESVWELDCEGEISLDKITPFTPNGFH

[9] = target: D(3) dopamine receptor (Homo sapiens) (UniProt P35462); assay: Binding affinity to D3 receptor
Sequence of D(3) dopamine receptor (Homo sapiens) (P35462 whole entry): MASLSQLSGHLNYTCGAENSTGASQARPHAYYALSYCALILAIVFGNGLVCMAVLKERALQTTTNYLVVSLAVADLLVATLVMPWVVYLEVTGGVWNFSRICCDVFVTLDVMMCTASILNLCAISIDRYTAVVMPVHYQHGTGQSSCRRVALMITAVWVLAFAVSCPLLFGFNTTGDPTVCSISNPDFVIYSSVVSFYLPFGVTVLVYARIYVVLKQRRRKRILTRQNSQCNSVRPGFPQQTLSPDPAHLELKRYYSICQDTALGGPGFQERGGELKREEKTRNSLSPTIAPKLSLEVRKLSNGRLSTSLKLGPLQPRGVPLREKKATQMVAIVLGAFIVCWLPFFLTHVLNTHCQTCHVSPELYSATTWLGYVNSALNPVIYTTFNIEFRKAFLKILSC

[10] = target: T2, D(4) dopamine receptor (Homo sapiens) (UniProt P21917); assay: Binding affinity to D4 receptor
T2 sequence (whole entry): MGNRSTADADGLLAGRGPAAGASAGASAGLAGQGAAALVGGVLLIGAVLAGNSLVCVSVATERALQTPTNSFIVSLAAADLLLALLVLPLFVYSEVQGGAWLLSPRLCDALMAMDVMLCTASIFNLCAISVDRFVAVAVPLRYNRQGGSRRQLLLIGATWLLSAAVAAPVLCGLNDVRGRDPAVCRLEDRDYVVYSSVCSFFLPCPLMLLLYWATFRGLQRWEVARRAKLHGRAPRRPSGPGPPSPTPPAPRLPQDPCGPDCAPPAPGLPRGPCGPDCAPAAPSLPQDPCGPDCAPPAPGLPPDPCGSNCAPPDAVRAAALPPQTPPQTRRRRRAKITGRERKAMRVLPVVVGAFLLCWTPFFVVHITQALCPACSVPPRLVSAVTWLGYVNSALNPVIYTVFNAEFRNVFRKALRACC

[11] = target: D(1A) dopamine receptor (Homo sapiens) (UniProt P21728); assay: Binding affinity to D1 receptor
Sequence of D(1A) dopamine receptor (Homo sapiens) (P21728 whole entry): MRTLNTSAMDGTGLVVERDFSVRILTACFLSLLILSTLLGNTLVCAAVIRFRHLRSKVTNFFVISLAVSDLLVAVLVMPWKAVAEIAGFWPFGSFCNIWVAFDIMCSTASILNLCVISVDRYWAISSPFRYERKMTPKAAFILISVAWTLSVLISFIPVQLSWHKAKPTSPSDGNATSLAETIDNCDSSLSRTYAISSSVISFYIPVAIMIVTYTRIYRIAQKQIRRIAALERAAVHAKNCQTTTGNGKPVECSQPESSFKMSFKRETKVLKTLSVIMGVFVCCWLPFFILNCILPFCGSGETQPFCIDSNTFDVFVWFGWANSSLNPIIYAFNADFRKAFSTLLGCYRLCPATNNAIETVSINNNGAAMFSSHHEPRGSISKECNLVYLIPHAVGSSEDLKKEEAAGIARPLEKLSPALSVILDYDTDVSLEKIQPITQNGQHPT

[12] = target: T1, D(2) dopamine receptor; conditions: HTLA, 6 uM
Description: Partial agonist activity at D2L receptor in human HTLA cells assessed as beta arrestin recruitment at 6 uM after 18 hrs by luminescence assay relative to Quinpirole

SMILES: CCOc1cccc(N2CCN(CCCCOc3ccc4c(c3)NC(=O)CC4)CC2)c1
EC50 [1]: 10 nM
EC50 ([2]; read-out: EC50): 158 nM
Ki [3]: 21 nM
Emax [4]: 40%

SMILES: CCOc1ccc(N2CCN(CCCCOc3ccc4c(c3)NC(=O)CC4)CC2)cc1
EC50 [1]: 50 nM
EC50 ([2]; read-out: EC50): 251 nM
Ki [3]: 53 nM
Emax [4]: 82%

SMILES: Clc1cccc(N2CCN(CCCCOc3ccc4scnc4c3)CC2)c1Cl
EC50 [5]: 63 nM
EC50 ([2]; hek-293t): Not Active

SMILES: CC(C)Oc1ccccc1N1CCN(CCCCOc2ccc3c(c2)NC(=O)CC3)CC1
EC50 [1]: 2 nM
EC50 ([2]; read-out: EC50): 25 nM
Ki [3]: 3.1 nM
Emax [4]: 63%

SMILES: O=C1NCCc2ccc(OCCCN3CCCN(c4cccc(Cl)c4Cl)CC3)cc21
EC50 [1]: 6.3 nM
EC50 ([2]; hek-293t): Not Active

SMILES: Clc1cccc(N2CCN(CCCOc3ccc4scnc4c3)CC2)c1Cl
EC50 [1]: 126 nM
EC50 ([2]; hek-293t): Not Active

SMILES: O=C1NCCc2ccc(OCCCCN3CCN(c4cccc(Cl)c4Cl)CC3)cc21
EC50 [5]: 4 nM
EC50 ([2]; hek-293t): Not Active

SMILES: Clc1cccc(N2CCN(CCCOc3ccc4cn[nH]c4c3)CC2)c1Cl
EC50 [1]: 200 nM
EC50 ([2]; hek-293t): Not Active

SMILES: Clc1cccc(N2CCCN(CCCOc3ccc4scnc4c3)CC2)c1Cl
Emax [4]: 71%

SMILES: Clc1cccc(N2CCN(CCCCOc3ccc4cn[nH]c4c3)CC2)c1Cl
EC50 [5]: 100 nM
EC50 ([2]; hek-293t): Not Active

EC50 ([2]; hek-293t): Not Active
SMILES: O=C1CCc2ccc(OCCCCN3CCN(c4cccc(Cl)c4Cl)CC3)nc2N1

SMILES: O=C1NCCc2ccc(OCCCN3CCN(c4cccc(Cl)c4Cl)CC3)cc21
EC50 [1]: 20 nM
EC50 ([2]; hek-293t): Not Active

SMILES: O=c1[nH]c2ccc(OCCCCN3CCN(c4cccc(Cl)c4Cl)CC3)cc2[nH]1
EC50 ([2]; hek-293t): Not Active

SMILES: Clc1cccc(N2CCCN(CCCCOc3ccc4scnc4c3)CC2)c1Cl
EC50 ([2]; hek-293t): Not Active

SMILES: O=c1[nH]c2ccc(OCCCCN3CCC(c4cccc(Cl)c4Cl)CC3)cc2[nH]1
EC50 ([2]; hek-293t): Not Active

SMILES: Clc1cccc(C2CCN(CCCCOc3ccc4scnc4c3)CC2)c1Cl
inhibition [6]: inactive
inhibition [7]: Active
Activity [8]: inactive
Activity [9]: Active
Activity [10]: Active
Activity [11]: inactive
EC50 [1]: 79 nM
EC50 ([2]; hek-293t): Not Active
Emax [4]: 78%

SMILES: Clc1cccc(C2CCN(CCCOc3ccc4scnc4c3)CC2)c1Cl
EC50 [1]: 50 nM
EC50 ([2]; hek-293t): Not Active

SMILES: O=C1CCc2ccc(OC[C@H]3CC[C@H](CN4CCN(c5cccc(Cl)c5Cl)CC4)CC3)cc2N1
EC50 [5]: 1580 nM
EC50 ([2]; hek-293t): Not Active
Ki [3]: 145 nM
Emax [12]: 45%

SMILES: O=C1CCc2ccc(OCCCCN3CCCN(c4cccc(Cl)c4Cl)CC3)nc2N1
EC50 [1]: 1.6 nM
EC50 ([2]; hek-293t): Not Active

SMILES: O=C1CCc2ccc(Oc3cccc(CN4CCN(c5cccc(Cl)c5Cl)CC4)c3)cc2N1
EC50 [5]: 316 nM
EC50 ([2]; hek-293t): Not Active

Activity [8]: inactive
Activity [11]: inactive
SMILES: O=C1CCc2ccc(OCCCCN3CCCN(c4cccc(Cl)c4Cl)CC3)cc2N1
inhibition [6]: inactive
inhibition [7]: Active

SMILES: O=C1CCc2ccc(Oc3ccc(CN4CCN(c5cccc(Cl)c5Cl)CC4)cc3)cc2N1
EC50 [5]: 501 nM
EC50 ([2]; hek-293t): Not Active
